Structures can show the parent of a compound that is named as a salt.

Sequence of hBTK (full-length BTK, 6HIS-tag cleaved) (Q06187 whole entry): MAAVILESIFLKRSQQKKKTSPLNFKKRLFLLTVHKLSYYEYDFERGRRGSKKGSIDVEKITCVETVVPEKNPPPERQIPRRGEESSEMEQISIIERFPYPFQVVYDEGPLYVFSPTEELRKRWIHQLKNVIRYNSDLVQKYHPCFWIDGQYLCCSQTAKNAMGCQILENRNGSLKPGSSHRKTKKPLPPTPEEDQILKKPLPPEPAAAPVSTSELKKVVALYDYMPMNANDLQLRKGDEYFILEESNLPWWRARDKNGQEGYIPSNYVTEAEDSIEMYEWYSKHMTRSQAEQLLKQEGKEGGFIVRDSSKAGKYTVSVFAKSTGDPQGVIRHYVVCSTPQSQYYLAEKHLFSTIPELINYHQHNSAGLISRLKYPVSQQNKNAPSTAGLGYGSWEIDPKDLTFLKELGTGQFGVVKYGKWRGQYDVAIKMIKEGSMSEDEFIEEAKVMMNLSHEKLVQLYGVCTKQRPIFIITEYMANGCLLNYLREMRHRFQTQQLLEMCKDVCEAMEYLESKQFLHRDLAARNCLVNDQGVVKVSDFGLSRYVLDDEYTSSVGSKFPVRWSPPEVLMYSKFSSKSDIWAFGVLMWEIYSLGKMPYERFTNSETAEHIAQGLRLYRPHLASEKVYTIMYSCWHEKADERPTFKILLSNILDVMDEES

One experiment concerns the target hBTK (full-length BTK, 6HIS-tag cleaved) (Homo sapiens (Human), UniProt Q06187). The experiment is described as follows: BTK enzymatic activity, LANCE TR-FRET assay (Assay Method C). It counts as biochemical. The settings on record: LANCE TR-FRET, 50 pM hBTK, 25 μM ATP; class 100-1000 is given as ≧100 nM-<1 μM; read-out: IC50 Btk activity values - Assay Method C.
For the compound `Nc1ncnc2c1c(-c1ccc(C(=O)Nc3cc(C(F)(F)F)ccn3)cc1)nn2[C@@H]1CCCc2c1cnn2CCO` [Example 561, 4-{4-amino-1-[(4R)-1-(2-hydroxyethyl)-4,5,6,7-tetrahydro-1H-indazol-4-yl]-1H-pyrazolo[3,4-d]pyrimidin-3-yl}-N-[4-(trifluoromethyl)pyridin-2-yl]benzamide, TFA salt], the IC50 is less than 10 nM.
In the case of `CN1CC(C(=O)N2CCO[C@@H](c3nc(-c4ccc(C(=O)Nc5cc(C(F)(F)F)ccn5)cc4)c4c(N)nccn34)C2)C1` [Example 501, 4-(8-amino-3-{(2R)-4-[(1-methylazetidin-3-yl)carbonyl]morpholin-2-yl}imidazo[1,5-a]pyrazin-1-yl)-N-[4-(trifluoromethyl)pyridin-2-yl]benzamide], the IC50 is less than 10 nM.
With `CCN1C[C@H](c2nc(-c3ccc(C(=O)Nc4cc(C(F)(F)F)ccn4)cc3)c3c(N)nccn23)OC[C@@H]1CO` [Example 549, 4-{8-amino-3-[(2R,5S)-4-ethyl-5-(hydroxymethyl)morpholin-2-yl]imidazo[1,5-a]pyrazin-1-yl}-N-[4-(trifluoromethyl)pyridin-2-yl]benzamide, TFA salt], the IC50 is less than 10 nM.
Turning to `Cn1ncc2c1CCC[C@@H]2n1nc(-c2ccc(C(=O)Nc3cc(C(F)(F)F)ccn3)cc2)c2c(N)ncnc21` [Example 553, 4-{4-amino-1-[(4S)-1-methyl-4,5,6,7-tetrahydro-1H-indazol-4-yl]-1H-pyrazolo[3,4-d]pyrimidin-3-yl}-N-[4-(trifluoromethyl)pyridin-2-yl]benzamide, TFA salt], the IC50 is less than 10 nM.
Turning to `COCC1(C(=O)N2CCC[C@@H](c3nc(-c4ccc(C(=O)Nc5cc(C(F)(F)F)ccn5)cc4)c4c(N)nccn34)C2)CC1` [Example 334, 4-{8-amino-3-[(3R)-1-{[1-(methoxymethyl)cyclopropyl]carbonyl}piperidin-3-yl]imidazo[1,5-a]pyrazin-1-yl}-N-[4-(trifluoromethyl)pyridin-2-yl]benzamide], the IC50 was less than 10 nM.
Consider `C[C@H]1CC[C@@H](c2nc(-c3ccc(C(=O)Nc4cc(C(F)F)ccn4)cc3F)c3c(N)nccn23)CN1C(=O)C1CC1` [Example 436, 4-{8-amino-3-[(3R,6S)-1-(cyclopropylcarbonyl)-6-methylpiperidin-3-yl]imidazo[1,5-a]pyrazin-1-yl}-N-[4-(difluoromethyl)pyridin-2-yl]-3-fluorobenzamide], for which the IC50 is less than 10 nM.
Turning to `CO[C@H](C)c1cnc(N)c2c(-c3ccc(C(=O)Nc4cc(C(F)(F)F)ccn4)cc3)nc([C@@H]3CCCN(C(=O)C4(C)COC4)C3)n12` [Example 467, 4-(8-amino-5-[(1R)-1-methoxyethyl]-3-{(3R)-1-[(3-methyloxetan-3-yl)carbonyl]piperidin-3-yl}imidazo[1,5-a]pyrazin-1-yl)-N-[4-(trifluoromethyl)pyridin-2-yl]benzamide], the concentration for half-maximal inhibition (IC50) is less than 10 nM.
For the compound `Cn1cc2c(n1)CCC[C@@H]2n1nc(-c2ccc(C(=O)Nc3cc(C(F)(F)F)ccn3)cc2)c2c(N)ncnc21` [Example 558, 4-{4-amino-1-[(4S)-2-methyl-4,5,6,7-tetrahydro-2H-indazol-4-yl]-1H-pyrazolo[3,4-d]pyrimidin-3-yl}-N-[4-(trifluoromethyl)pyridin-2-yl]benzamide, TFA salt], the IC50 was less than 10 nM.
On the same count and under the same terms, the same measure for `Nc1nccn2c([C@H]3CN(CCO)CCO3)nc(-c3ccc(C(=O)Nc4cc(C(F)(F)F)ccn4)cc3)c12` [Example 492, (R)-4-(8-amino-3-(4-(2-hydroxyethyl)morpholin-2-yl)imidazo[1,5-a]pyrazin-1-yl)-N-(4-(trifluoromethyl)pyridin-2-yl)benzamide]: less than 10 nM; for `Nc1nccn2c([C@@H]3CN[C@H](CO)CO3)nc(-c3ccc(C(=O)Nc4cc(C(F)(F)F)ccn4)cc3)c12` [Example 547, 4-{8-amino-3-[(2S,5R)-5-(hydroxymethyl)morpholin-2-yl]imidazo[1,5-a]pyrazin-1-yl}-N-[4-(trifluoromethyl)pyridin-2-yl]benzamide, TFA salt]: 10 to 100 nM; for `CN1CC[C@@H](C(=O)N2CCC[C@@H](c3nc(-c4ccc(C(=O)Nc5cc(C(F)(F)F)ccn5)cc4)c4c(N)nccn34)C2)C1` [Example 348, 4-(8-amino-3-[(3R)-1-{[(3R)-1-methylpyrrolidin-3-yl]carbonyl}piperidin-3-yl]imidazo[1,5-a]pyrazin-1-yl}-N-[4-(trifluoromethyl)pyridin-2-yl]benzamide]: less than 10 nM.
`N#CCN1CCO[C@@H](c2nc(-c3ccc(C(=O)Nc4cc(C(F)(F)F)ccn4)cc3)c3c(N)ncc(Cl)n23)C1` [Example 533, 4-{8-amino-5-chloro-3-[(2R)-4-(cyanomethyl)morpholin-2-yl]imidazo[1,5-a]pyrazin-1-yl}-N-[4-(trifluoromethyl)pyridin-2-yl]benzamide]: the IC50 was less than 10 nM.
Take `Cc1cnc(N)c2c(-c3ccc(C(=O)Nc4cc(C(F)(F)F)ccn4)cc3)nc([C@H]3CN(C(=O)C(F)F)CCO3)n12` [Example 538, 4-{8-amino-3-[(2R)-4-(difluoroacetyl)morpholin-2-yl]-5-methylimidazo[1,5-a]pyrazin-1-yl}-N-[4-(trifluoromethyl)pyridin-2-yl]benzamide, TFA salt]: the half-inhibitory concentration (IC50) was less than 10 nM.
The same measure, in the same setting: the same measure for `COCCN1CCO[C@@H](c2nc(-c3ccc(C(=O)Nc4cc(C(F)(F)F)ccn4)cc3)c3c(N)ncc(Cl)n23)C1` [Example 542, 4-{8-amino-5-chloro-3-[(2R)-4-(2-methoxyethyl)morpholin-2-yl]imidazo[1,5-a]pyrazin-1-yl}-N-[4-(trifluoromethyl)pyridin-2-yl]benzamide, TFA salt]: less than 10 nM; for `Cc1cnc(N)c2c(-c3ccc(C(=O)Nc4cc(C(F)(F)F)ccn4)cc3)nc([C@H]3CN(C(=O)C4(C)COC4)CCO3)n12` [Example 506, 4-(8-amino-5-methyl-3-{(2R)-4-[(3-methyloxetan-3-yl)carbonyl]morpholin-2-yl}imidazo[1,5-a]pyrazin-1-yl)-N-[4-(trifluoromethyl)pyridin-2-yl]benzamide]: 10 to 100 nM; for `CCN1CCC(c2nc(-c3ccc(C(=O)Nc4cc(C(F)(F)F)ccn4)cc3)c3c(N)nccn23)CC1=O` (stereo not drawn) [Example 573, 4-[8-amino-3-(1-ethyl-2-oxopiperidin-4-yl)imidazo[1,5-a]pyrazin-1-yl]-N-[4-(trifluoromethyl)-pyridin-2-yl]benzamide, TFA salt]: 10 to 100 nM.
Consider `COCC(=O)N1CCC[C@@H](n2nc(-c3ccc(C(=O)Nc4cc(C(F)(F)F)ccn4)cc3)c3c(N)nccc32)C1` [Example 383, 4-{4-amino-1-[(3R)-1-(methoxyacetyl)piperidin-3-yl]-1H-pyrazolo[4,3-c]pyridin-3-yl}-N-[4-(trifluoromethyl)pyridin-2-yl]benzamide], for which the half-maximal inhibitory concentration (IC50) was less than 10 nM.
Turning to `COc1ccnc(NC(=O)c2ccc(-c3nc([C@@H]4CCCN(C(=O)C5(C)COC5)C4)n4ccnc(N)c34)cc2)n1` [Example 361, 4-(8-amino-3-{(3R)-1-[(3-methyloxetan-3-yl)carbonyl]piperidin-3-yl}imidazo[1,5-a]pyrazin-1-yl)-N-(4-methoxypyrimidin-2-yl)benzamide], the IC50 is 100 to 1000 nM.
In the case of `COc1ccc(NC(=O)c2ccc(-c3nc([C@@H]4CCCN(C(=O)C5(C)COC5)C4)n4ccnc(N)c34)cc2)nc1` [Example 325, (R)-4-(8-amino-3-(1-(3-methyloxetane-3-carbonyl)piperidin-3-yl)imidazo[1,5-a]pyrazin-1-yl)-N-(5-methoxypyridin-2-yl)benzamide], the IC50 fell in the range of 10 to 100 nM.
Same read-out and setting: the same measure for `CSCCC(=O)N1CCO[C@@H](c2nc(-c3ccc(C(=O)Nc4cc(C(F)(F)F)ccn4)cc3)c3c(N)nccn23)C1` [Example 502, 4-(8-amino-3-{(2R)-4-[3-(methylsulfanyl)propanoyl]morpholin-2-yl}imidazo[1,5-a]pyrazin-1-yl)-N-[4-(trifluoromethyl)pyridin-2-yl]benzamide]: less than 10 nM; for `CCC(=O)N1CCC[C@@H](c2nc(-c3ccc(C(=O)Nc4cc(C(F)(F)F)ccn4)cc3F)c3c(N)nccn23)C1` [Example 487, 4-{8-amino-3-[(3R)-1-propanoylpiperidin-3-yl]imidazo[1,5-a]pyrazin-1-yl}-3-fluoro-N-[4-(trifluoromethyl)pyridin-2-yl]benzamide]: less than 10 nM.
On to `COCCN1CCO[C@@H](c2nc(-c3ccc(C(=O)Nc4cc(C(F)(F)F)ccn4)cc3)c3c(N)nccn23)C1` [Example 491, (R)-4-(8-amino-3-(4-(2-methoxyethyl)morpholin-2-yl)imidazo[1,5-a]pyrazin-1-yl)-N-(4-(trifluoromethyl)pyridin-2-yl)benzamide], for which the IC50 is less than 10 nM.
For the compound `COCC(=O)N1CCC[C@@H](c2nc(-c3ccc(C(=O)Nc4cc(C(F)(F)F)ccn4)cc3F)c3c(N)nccn23)C1` [Example 575, 4-{8-amino-3-[(3R)-1-(methoxyacetyl)piperidin-3-yl]imidazo[1,5-a]pyrazin-1-yl}-3-fluoro-N-[4-(trifluoromethyl)pyridin-2-yl]benzamide, TFA salt], the concentration for half-maximal inhibition (IC50) is less than 10 nM.
With `C[C@H]1CC[C@@H](c2nc(-c3ccc(C(=O)Nc4cc(C(F)(F)F)ccn4)cc3)c3c(N)nccn23)CN1C(=O)C1(C)COC1` [Example 393, 4-(8-amino-3-{(3R,6S)-6-methyl-1-[(3-methyloxetan-3-yl)carbonyl]piperidin-3-yl}imidazo[1,5-a]pyrazin-1-yl)-N-[4-(trifluoromethyl)pyridin-2-yl]benzamide], the half-inhibitory concentration (IC50) is less than 10 nM.
For `N#CCCN1CCO[C@@H](c2nc(-c3ccc(C(=O)Nc4cc(C(F)(F)F)ccn4)cc3)c3c(N)nccn23)C1` [Example 532, 4-{8-amino-3-[(2R)-4-(2-cyanoethyl)morpholin-2-yl]imidazo[1,5-a]pyrazin-1-yl}-N-[4-(trifluoromethyl)pyridin-2-yl]benzamide], the IC50 is less than 10 nM.

The same experiment, now with this note: Table D; Assay Method C (LANCE TR-FRET), 50 pM hBTK, 25 μM ATP; read-out: IC50 BTK activity value.
As to `C[C@H]1CC[C@@H](c2nc(-c3ccc(C(=O)Nc4cc(C(F)F)ccn4)cc3F)c3c(N)nccn23)CN1C(=O)C1CC1` [Example 436, 4-{8-amino-3-[(3R,6S)-1-(cyclopropylcarbonyl)-6-methylpiperidin-3-yl]imidazo[1,5-a]pyrazin-1-yl}-N-[4-(difluoromethyl)pyridin-2-yl]-3-fluorobenzamide], the concentration for half-maximal inhibition (IC50) is 0.479 nM.
For the compound `C[C@H]1CC[C@@H](c2nc(-c3ccc(C(=O)Nc4cc(C(F)(F)F)ccn4)cc3)c3c(N)nccn23)CN1C(=O)C1(C)COC1` [Example 393, 4-(8-amino-3-{(3R,6S)-6-methyl-1-[(3-methyloxetan-3-yl)carbonyl]piperidin-3-yl}imidazo[1,5-a]pyrazin-1-yl)-N-[4-(trifluoromethyl)pyridin-2-yl]benzamide], the 50% inhibitory concentration (IC50) is 0.167 nM.

The record behind these values is US9718828B2 (MERCK SHARP & DOHME CORP., priority 2011, dated 2017).
